pIC50, pKd: −log10 of the molar value. Like-named read-outs stand apart in the source and are kept apart here.
Legend:
BV2 cells [1] = test: IC50 of OPPs-induced cytotoxicity in BV2 cells; format: cell-based; details: for pIC50: read-out: IC50 values of OPPs in BV2 cells
BV2 cells [2] = test: CCK-8 cell viability assay; format: cell-based; details: CCK-8, 125-1,000 μM, 24 hr; significant concentrations differ per compound
BV2 cells [3] = test: LDH-based cytotoxicity assay; format: cell-based; details: 125-1,000 μM, 24 hr, significant concentrations differ per compound
[4] = tested on: NLRP3, ASC, Caspase-1, IL-1β, IL-18 mRNA in BV2 cells; test: RT-qPCR of NLRP3 inflammasome and inflammatory cytokine mRNA; format: cell-based; details: for expression of NLRP3, ASC, Caspase-1, IL-1β, IL-18 mRNA vs 0 μM OPPs / ASC mRNA expression, MCC950 intervention vs OPP alone / IL-1β mRNA expression, MCC950 intervention vs OPP alone / NLRP3 mRNA expression, MCC950 pre-treatment vs OPP alone: BV2 cells; for expression of NLRP3, ASC, Caspase-1, IL-1β, IL-18 mRNA vs 0 μM OPPs: 500 μM OPP, P < 0.0001; for ASC mRNA expression, MCC950 intervention vs OPP alone / IL-1β mRNA expression, MCC950 intervention vs OPP alone / NLRP3 mRNA expression, MCC950 pre-treatment vs OPP alone: OPP 500 μM
[5] = tested on: IL-1β and IL-18 in extracellular medium of BV2 cells; test: ELISA of IL-1β and IL-18 in culture supernatants; format: cell-based; details: P < 0.0001; for expression of IL-1β and IL-18 in the extracellular medium vs 0 μM OPPs: ELISA, BV2 cells, OPP 125, 250, 500 μM, 24 hr
[6] = biological target: hNLRP3 LRR recombinant protein (Homo sapiens, UniProt Q96P20); test: Surface plasmon resonance; format: binding; details: for kon: read-out: association constant k a
[7] = SPR, Biacore 8K, CM5 chip, 25°C

Sequence of hNLRP3 LRR recombinant protein (Q96P20 742-991 limits assumed): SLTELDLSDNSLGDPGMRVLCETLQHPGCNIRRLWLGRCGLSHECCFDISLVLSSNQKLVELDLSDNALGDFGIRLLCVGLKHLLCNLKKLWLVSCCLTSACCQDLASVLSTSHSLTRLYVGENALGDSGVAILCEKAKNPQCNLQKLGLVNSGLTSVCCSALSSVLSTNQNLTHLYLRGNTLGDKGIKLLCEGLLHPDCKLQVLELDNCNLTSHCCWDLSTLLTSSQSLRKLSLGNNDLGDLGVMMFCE

Row | SMILES | pIC50 (BV2 cells [1]; BV2 cells, OPPs 24 hr) | cell viability of BV2 cells vs 0 μM OPPs (BV2 cells [2]) | cytotoxicity (LDH) in BV2 cells vs 0 μM OPPs (BV2 cells [3]) | Caspase-1 and IL-18 mRNA expressions, MCC950 intervention vs OPP alone [4] | expression of NLRP3, ASC, Caspase-1, IL-1β, IL-18 mRNA vs 0 μM OPPs [4] | ASC mRNA expression, MCC950 intervention vs OPP alone ([4]; MCC950 10 μM) | IL-1β mRNA expression, MCC950 intervention vs OPP alone ([4]; MCC950 10 μM) | NLRP3 mRNA expression, MCC950 pre-treatment vs OPP alone ([4]; MCC950 10 μM) | expression of IL-1β and IL-18 in the extracellular medium vs 0 μM OPPs [5] | affinity constant K D [6, 7] | cytotoxicity induced by OPPs in BV2 cells (BV2 cells [1]; MCC950 10 μM intervention, from IC50 shift) | activation of the NLRP3 inflammasome and associated inflammatory cytokine mRNA expression in OPPs-treated BV2 cells ([4]; MCC950 10 μM, OPPs 500 μM) | IL-1β and IL-18 expression in the extracellular medium of OPPs-treated BV2 cells ([5]; MCC950 10 μM vs OPPs treatment (125, 250, 500 μM)) | pIC50 (BV2 cells [1]; Mus musculus, BV-2, 24 h) | pKd [6] | dissociation constant k d [6, 7] | kon [6] | association constant k a [6, 7] | pKd ([6]; read-out: affinity constant K D, SPR, Biacore 8K, CM5 chip, 25°C)
1 | COP(=O)(OC)C(O)C(Cl)(Cl)Cl (stereo not shown) [dipterex] | 3.39 | significantly decreased | significantly increased | significantly decreased | significantly increased | decreased | decreased | significant decrease | significantly increased | No obvious binding |  |  |  |  |  |  |  |  | 
2 | CC(C)(O)c1coc(S(=O)(=O)NC(=O)Nc2c3c(cc4c2CCC4)CCC3)c1 [MCC950, reference compound] |  |  |  |  |  |  |  |  |  |  | markedly decrease | reduced | significantly reduced |  |  |  |  |  | 
3 | COP(=O)(OC)OC=C(Cl)Cl [dichlorvos] |  | significantly decreased | significantly increased | significantly decreased | significantly increased | decreased | decreased | significant decrease | significantly increased |  |  |  |  | 3.56 | 2.84 | 0.00489 s⁻¹ | 3.35 M⁻¹ s⁻¹ |  | 
4 | COP(=S)(OC)Oc1ccc(SC)c(C)c1 [fenthion] |  | significantly decreased | significantly increased | significantly decreased | significantly increased | decreased | decreased | significant decrease | significantly increased | No obvious binding |  |  |  | 2.67 |  |  |  |  | 
5 | CCOP(=O)(OCC)Oc1ccc([N+](=O)[O-])cc1 [paraoxon] | 3.26 | significantly decreased | significantly increased | significantly decreased | significantly increased | decreased | decreased | significant decrease | significantly increased |  |  |  |  |  |  | 0.00461 s⁻¹ |  | 14.2 M⁻¹ s⁻¹ | 
6 | COP(=O)(OC)OC(Br)C(Cl)(Cl)Br (stereo not shown) [dibrom] | 3.23 |  |  | significantly decreased | significantly increased | decreased | decreased | significant decrease | significantly increased |  |  |  |  |  |  | 0.206 s⁻¹ |  | 76.5 M⁻¹ s⁻¹ | 2.57
7 | CNC(=O)CSP(=S)(OC)OC [dimethoate] |  | significantly decreased | significantly increased | significantly decreased | significantly increased | decreased | decreased | significant decrease | significantly increased |  |  |  |  |  | 4.05 | 0.00529 s⁻¹ | 58.9 M⁻¹ s⁻¹ |  | 

Reference: article PMC11024795 (GeoHealth, 2024)
